According to patent US20250084092A1, “ANNULATED PYRIDAZINE COMPOUND” (Nico Therapeutics, Inc., priority 2021, published 2025):
Where a name gives a salt, the structure may show the parent alone.

Biological target: T1, NLRP3 inflammasome (Homo sapiens, UniProt Q96P20)
T1 construct: endogenous in cells; host or cells: THP-1 cells (PMA-differentiated, stimulated with LPS and ATP)
Test: THP-1 IL-1β production inhibition test
Assay type: cell-based
Details: PMA-treated THP-1 cells, LPS 50 ng/mL + ATP 5 mM, 2 hours, IL-1β in supernatant by ELISA
Experimental: PMA (phorbol myristate acetate, SIGMA, P1585) was added to THP-1 cells in an amount of 50 ng/mL to culture the cells for 2 days at 37° C. […] LPS (Lipopolysaccharide, SIMGA, L2880) and ATP (Adenosine triphosphate, SIGMA, A2383) were added so that final concentrations become 50 ng/mL and 5 mM, respectively, followed by culturing at 37° C. for 2 hours. The supernatants were collected to measure the concentrations of IL-1β by ELISA (DuoSet ELISA human IL-1β, R&D Systems, DY201). The IL-1β concentrations were plotted against log concentrations of test compounds, and an IC50 value was calculated by sigmoid Emax model nonlinear regression analysis.

T1 sequence (Q96P20 whole entry): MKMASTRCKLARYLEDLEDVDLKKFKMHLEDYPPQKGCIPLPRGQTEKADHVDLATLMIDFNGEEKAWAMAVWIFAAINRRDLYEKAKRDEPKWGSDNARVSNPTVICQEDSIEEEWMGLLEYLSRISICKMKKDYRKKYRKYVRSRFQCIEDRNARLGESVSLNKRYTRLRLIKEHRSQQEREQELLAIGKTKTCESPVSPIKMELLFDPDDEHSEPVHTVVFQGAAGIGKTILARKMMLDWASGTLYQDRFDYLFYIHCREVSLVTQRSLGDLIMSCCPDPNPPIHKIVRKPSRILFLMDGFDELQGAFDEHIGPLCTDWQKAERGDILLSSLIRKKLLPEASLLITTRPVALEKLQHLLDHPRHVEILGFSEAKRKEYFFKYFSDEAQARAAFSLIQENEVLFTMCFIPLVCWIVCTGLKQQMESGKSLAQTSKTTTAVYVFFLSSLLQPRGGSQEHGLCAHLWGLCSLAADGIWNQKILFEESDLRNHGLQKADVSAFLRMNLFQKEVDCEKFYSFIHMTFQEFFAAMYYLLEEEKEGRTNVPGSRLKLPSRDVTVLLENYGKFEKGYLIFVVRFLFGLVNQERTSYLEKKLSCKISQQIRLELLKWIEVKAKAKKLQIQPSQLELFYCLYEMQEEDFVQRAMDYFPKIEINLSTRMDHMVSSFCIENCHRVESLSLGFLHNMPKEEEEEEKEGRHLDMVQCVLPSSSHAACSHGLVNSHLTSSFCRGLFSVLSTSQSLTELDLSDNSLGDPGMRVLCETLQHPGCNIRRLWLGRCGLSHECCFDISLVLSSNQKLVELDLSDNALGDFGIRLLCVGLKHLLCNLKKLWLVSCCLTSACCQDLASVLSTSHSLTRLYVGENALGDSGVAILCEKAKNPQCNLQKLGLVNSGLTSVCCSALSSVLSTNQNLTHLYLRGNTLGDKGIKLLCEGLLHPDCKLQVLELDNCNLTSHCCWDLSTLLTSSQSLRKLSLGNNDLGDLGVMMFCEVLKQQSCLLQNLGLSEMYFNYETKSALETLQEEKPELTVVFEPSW

## O=S1(=O)CCC(Oc2nnc(-c3ccc(C(F)(F)F)cc3O)c3ccccc23)CC1 [Example 10]
  IC50: 24 nM

## CC(C)(O)CNc1nnc(-c2ccc(C(F)(F)F)cc2O)c2c1CCC2 [Example 21]
  IC50: 81 nM

## Oc1cc(C(F)F)ccc1-c1nnc(N[C@@H]2CCCC[C@H]2O)c2c1CCOC2 [Example 87]
  IC50: 6.5 nM

## Cc1ccc(-c2nnc(N[C@H]3C[C@@](C)(O)C3)c3c2CCCC3)c(O)c1 [Example 31]
  IC50: 44 nM

## CC1(C)SCc2c(N[C@@H]3CCCN(CC(F)F)C3)nnc(-c3ccc(C(F)(F)F)cc3O)c21 [Example 132, 2-(4-{[(3R)-1-(2,2-difluoroethyl)piperidin-3-yl]amino}-7,7-dimethyl-5,7-dihydrothieno[3,4-d]pyridazin-1-yl)-5-(trifluoromethyl)phenol]
  IC50: 95 nM

## C[C@@H](O)CNc1nnc(-c2ccc(C(F)(F)F)cc2O)c2cnccc12 [16(2)]
  IC50: 20 nM

## Cc1cc(O)c(-c2nnc(N[C@@H]3CCCC[C@H]3O)c3c2COCC3)c(F)c1 [62(2)]
  IC50: 27 nM

## Cc1cc(O)c(-c2nnc(N[C@@H]3CCCC[C@H]3O)c3c2CCOC3)c(F)c1 [62(1)]
  IC50: 6.1 nM

## CC(=O)N1CCC[C@@H](Nc2nnc(-c3ccc(C(F)(F)F)cc3O)c3c2CSC3)C1 [Example 119]
  IC50: 6 nM

## Oc1cc(C(F)(F)F)ccc1-c1nnc(N[C@@H]2CCCN(C3CCC3)C2)c2c1CCCC2 [Example 71]
  IC50: 150 nM

## N[C@@H]1CCCC[C@H]1Nc1nnc(-c2ccc(C(F)(F)F)cc2O)c2c1CCOC2 [Example 95, 2-(1-{[(1R,2R)-2-aminocyclohexyl]amino}-7,8-dihydro-5H-pyrano[3,4-d]pyridazin-4-yl)-5-(trifluoromethyl)phenol]
  IC50: 61 nM

## Oc1cc(C(F)(F)F)ccc1-c1nnc(N[C@@H]2CCCC[C@H]2O)c2c1CCOC2 [Example 133, 2-(4-{[(1R,2R)-2-hydroxycyclohexyl]amino}-7,8-dihydro-5H-pyrano[3,4-d]pyridazin-1-yl)-5-(trifluoromethyl)phenol monohydrochloride]
  IC50: 1.3 nM

## Oc1cc(C(F)(F)F)ccc1-c1nnc(N[C@@H]2CCCC[C@H]2O)c2c1CSCC2 [Example 102]
  IC50: 5.1 nM

## Oc1cc(C(F)(F)F)ccc1-c1nnc(N[C@@H]2CCCC[C@H]2O)c2c1COCC2 [2(2), 2-(1-{[(1R,2R)-2-hydroxycyclohexyl]amino}-7,8-dihydro-5H-pyrano[3,4-d]pyridazin-4-yl)-5-(trifluoromethyl)phenol]
  IC50: 14 nM

## Oc1cc(C(F)(F)F)ccc1-c1nnc(N[C@@H]2CCCC[C@H]2O)c2c1CCNC2 [Example 90, 2-(4-{[(1R,2R)-2-hydroxycyclohexyl]amino}-5,6,7,8-tetrahydropyrido[3,4-d]pyridazin-1-yl)-5-(trifluoromethyl)phenol dihydrochloride]
  IC50: 12 nM

## C[C@@H](O)CNc1nnc(-c2ccc(C(F)(F)F)cc2C(F)(F)F)c2c1CCC2 [Example 8]
  IC50: 210 nM

## O=S1(=O)CCc2c(-c3ccc(C(F)(F)F)cc3O)nnc(N[C@@H]3CCCC[C@H]3O)c2C1 [Example 129, 4-{[(1R,2R)-2-hydroxycyclohexyl]amino}-1-[2-hydroxy-4-(trifluoromethyl)phenyl]-7,8-dihydro-6λ^6-thiopyrano[3,4-d]pyridazin-6,6(5H)-dione]
  IC50: 86 nM

## Oc1cc(OC(F)(F)F)ccc1-c1nnc(N[C@@H]2CCCC[C@H]2O)c2c1CCOC2 [Example 135, 2-(4-{[(1R,2R)-2-hydroxycyclohexyl]amino}-7,8-dihydro-5H-pyrano[3,4-d]pyridazin-1-yl)-5-(trifluoromethoxy)phenol monohydrochloride]
  IC50: 2.9 nM

## Oc1cc(C(F)(F)F)ccc1-c1nnc(N[C@H]2CCC(F)(F)C2)c2ccccc12 [Example 11]
  IC50: 16 nM

## Oc1cc(OC(F)(F)F)ccc1-c1nnc(N[C@@H]2CCOC[C@H]2O)c2c1CCCC2 [Example 37]
  IC50: 18 nM

## Oc1cc(C(F)(F)F)ccc1-c1nnc(N[C@@H]2CCOC[C@H]2O)c2c1COCC2 [101(2)]
  IC50: 8.6 nM

## Oc1cc(C(F)(F)F)ccc1-c1nnc(N[C@@H]2CCOC[C@H]2O)c2c1CCCCC2 [Example 44]
  IC50: 6.8 nM

## Oc1cc(C(F)F)ccc1-c1nnc(N[C@@H]2CCC[C@H](O)C2)c2c1COC2 [Example 114, 5-(difluoromethyl)-2-(4-{[(1R,3S)-3-hydroxycyclohexyl]amino}-5,7-dihydrofuro[3,4-d]pyridazin-1-yl)phenol]
  IC50: 15 nM

## N#C[C@@H]1CCCC[C@H]1Nc1nnc(-c2ccc(C(F)(F)F)cc2O)c2c1CCOC2 [72(2)]
  IC50: 14 nM

## Cc1ccc(-c2nnc(N[C@@H]3CCOC[C@H]3O)c3c2CCCCC3)c(O)c1 [Example 46]
  IC50: 11 nM

## COc1ccc(-c2nnc(N[C@H]3C[C@@](C)(O)C3)c3c2CCCC3)c(O)c1 [Example 33]
  IC50: 100 nM

## CCN1CCc2c(-c3ccc(C(F)(F)F)cc3O)nnc(N[C@@H]3CCCC[C@H]3O)c2C1 [Example 78]
  IC50: 54 nM

## CC(=O)NCCCCOc1nnc(-c2ccc(C(F)(F)F)cc2O)c2ccccc12 [Example 81, N-[4-({4-[2-hydroxy-4-(trifluoromethyl)phenyl]phthalazin-1-yl}oxy)butyl]acetamide]
  IC50: 33 nM

## C[C@@H](O)CNc1nnc(-c2ccc(C(F)(F)F)cc2C(F)(F)F)c2c1CN(S(C)(=O)=O)CC2 [Example 80, (2R)-1-({1-[2,4-bis(trifluoromethyl)phenyl]-6-(methanesulfonyl)-5,6,7,8-tetrahydropyrido[3,4-d]pyridazin-4-yl}amino)propan-2-ol]
  IC50: 5200 nM

## CC(=O)NCCCCNc1nnc(-c2ccc(C(F)(F)F)cc2O)c2c1COCC2 [Example 118]
  IC50: 4.8 nM

## O=S1(=O)CCc2c(N[C@@H]3CCCC[C@H]3O)nnc(-c3ccc(C(F)(F)F)cc3O)c2C1 [Example 130]
  IC50: 22 nM

## O=S1(=O)Cc2c(N[C@@H]3CCCC[C@H]3O)nnc(-c3ccc(C(F)(F)F)cc3O)c2C1 [131(1)]
  IC50: 3 nM

## CN1CCC[C@@H](Oc2nnc(-c3ccc(C(F)(F)F)cc3O)c3ccccc23)C1 [Example 67]
  IC50: 13 nM

## Oc1cc(Cl)ccc1-c1nnc(N[C@@H]2CCCC[C@H]2O)c2c1CCCC2 [Example 25]
  IC50: 4.6 nM

## CS(=O)(=O)N1CCc2c(-c3ccc(C(F)(F)F)cc3O)nnc(N[C@@H]3CCCC[C@H]3O)c2C1 [Example 93, 2-[4-{[(1R,2R)-2-hydroxycyclohexyl]amino}-6-(methanesulfonyl)-5,6,7,8-tetrahydropyrido[3,4-d]pyridazin-1-yl]-5-(trifluoromethyl)phenol]
  IC50: 200 nM

## Oc1ccccc1-c1nnc(N[C@@H]2CCCC[C@H]2O)c2c1CCOC2 [Example 61]
  IC50: 96 nM

## COc1ccc(-c2nnc(N[C@@H]3CCCC[C@H]3O)c3c2CCOC3)c(O)c1 [Example 69]
  IC50: 6.6 nM

## Oc1cc(C(F)(F)F)ccc1-c1nnc(N[C@H]2CCCC[C@@H]2O)c2c1CCOC2 [66(2)]
  IC50: 180 nM

## C[C@@H](O)CCc1nnc(-c2ccc(C(F)(F)F)cc2O)c2c1CCC2 [Example 22]
  IC50: 69 nM

## C[C@@H](O)CNc1nnc(-c2ccc(C(F)(F)F)cc2C(F)(F)F)c2c1CN(Cc1ccccc1)CC2 [Example 9]
  IC50: 1300 nM

## CC(=O)N1CCc2c(-c3ccc(C(F)(F)F)cc3C(F)(F)F)nnc(NC[C@@H](C)O)c2C1 [Example 79, 1-{1-[2,4-bis(trifluoromethyl)phenyl]-4-{[(2R)-2-hydroxypropyl]amino}-7,8-dihydropyrido[3,4-d]pyridazin-6(5H)-yl}ethan-1-one]
  IC50: 4800 nM
